Data from PMC3182149 (Phytochemistry letters, 2011).

How the values were obtained:
[1] = test system: MCF-7 human breast cancer cells; assay: Cytotoxicity assay, MCF-7 human breast cancer cell line; assay type: cell-based
[2] = test system: panel of three human cancer cells; assay: Cytotoxicity assay, panel of three human cancer cells; assay type: cell-based; conditions: range over the panel of three human cancer cells
[3] = test system: Lu1 human lung cancer cells; assay: Cytotoxicity assay, Lu1 human lung cancer cells; assay type: cell-based
[4] = test system: LNCaP hormone-dependent prostate cancer cells; assay: Cytotoxicity assay, LNCaP hormone-dependent prostate cancer cells; assay type: cell-based, human
NF-κB p65 = NF-κB p65 (Homo sapiens, UniProt Q04206); assay: Enzyme-based ELISA NF-κB p65 assay; assay type: biochemical; conditions: inhibition of binding of NF-κB to DNA; Hela nuclear extract
Sequence of NF-κB p65 (Q04206 whole entry): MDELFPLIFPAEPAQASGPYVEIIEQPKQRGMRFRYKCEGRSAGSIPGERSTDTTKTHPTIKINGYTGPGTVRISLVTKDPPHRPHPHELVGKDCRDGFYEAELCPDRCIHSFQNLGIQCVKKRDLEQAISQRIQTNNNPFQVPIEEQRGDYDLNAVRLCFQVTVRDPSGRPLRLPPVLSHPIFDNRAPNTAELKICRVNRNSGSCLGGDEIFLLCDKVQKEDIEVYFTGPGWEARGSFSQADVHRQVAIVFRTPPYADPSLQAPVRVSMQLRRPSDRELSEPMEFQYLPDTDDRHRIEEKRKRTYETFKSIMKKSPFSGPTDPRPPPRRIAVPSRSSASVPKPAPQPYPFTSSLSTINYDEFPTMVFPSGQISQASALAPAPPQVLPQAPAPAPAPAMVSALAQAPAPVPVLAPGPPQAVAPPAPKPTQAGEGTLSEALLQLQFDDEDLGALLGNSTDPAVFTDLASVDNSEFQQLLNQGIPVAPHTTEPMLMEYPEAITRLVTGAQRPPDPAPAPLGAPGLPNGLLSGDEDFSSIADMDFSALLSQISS
Sequence of NF-κB p65 (P19838 1-433 partner limits assumed): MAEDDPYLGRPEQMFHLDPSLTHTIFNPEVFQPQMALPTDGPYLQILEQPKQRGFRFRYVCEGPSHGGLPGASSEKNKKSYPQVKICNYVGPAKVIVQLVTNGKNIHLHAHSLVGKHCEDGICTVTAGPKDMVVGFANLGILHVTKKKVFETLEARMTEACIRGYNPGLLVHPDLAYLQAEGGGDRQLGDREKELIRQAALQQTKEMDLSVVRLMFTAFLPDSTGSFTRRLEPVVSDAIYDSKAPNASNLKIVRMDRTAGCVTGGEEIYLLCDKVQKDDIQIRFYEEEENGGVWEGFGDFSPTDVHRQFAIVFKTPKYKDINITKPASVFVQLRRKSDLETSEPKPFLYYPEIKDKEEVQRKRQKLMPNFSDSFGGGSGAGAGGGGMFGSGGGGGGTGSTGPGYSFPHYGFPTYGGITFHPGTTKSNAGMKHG

Row | ED50 (NF-κB p65) [µM] | Compound | ED50 [1] [µM] | ED50 values [2] [µM] | ED50 [3] [µM] | ED50 [4] [µM]
1 | – | COc1ccc([C@@H]2CC(=O)c3c(O)cc(OC)cc3O2)cc1 [Compound 3, (S)-5-hydroxy-7,4′-dimethoxyflavanone] | 1.1 | 1.1 to 6.7 | 4.7 | 6.7
2 | 10.3 | methyl 3,4,5-O-tricaffeoyl quinate [Compound 4] | – | – | – | –
